Patent US12171833B2, “Mucoadhesive polymeric drug delivery compositions and methods” (The University of British Columbia, priority 2020, dated 2024)

What was measured:
[1] = In vitro drug release from formulation A (dialysis mini chamber, PBS, 37° C.); format: physicochemical; conditions: 100 mg, PBS pH 7.4, 37° C., up to 30 hours
Description: Formulation A of PLGA 5%, HA 3%, PEG 92% was made up as described in TABLE 8. […] For the protein study the mini chamber was not closed but a small retaining sponge applied. The chamber was placed in 5 mL of PBS (pH 7.4 or PBS containing albumin to increase the solubility of docetaxel) and placed in an incubator at 37° C.

[2] = 30 min IV infusion, cited from earlier work

drug release from paste [1]: faster than the other two agents
Compound: Nc1ccn([C@@H]2O[C@H](CO)[C@@H](O)C2(F)F)c(=O)n1 [gemcitabine]
AUC0-inf ([2]; 1250 mg/m^2 (32.1 mg/kg), literature): 12500 ng·h/mL | kel ([2]; 1250 mg/m^2, literature): 3.18 h⁻¹ | t1/2 (terminal) ([2]; 1250 mg/m^2, literature): 13.8 min
